Data on one molecule can be found in US9187413B2, “Peripherally restricted FAAH inhibitors” (The Regents of the University of California, priority 2010, dated 2015).

Data set [1] deals with acetic acid-induced writhing. The data set is described as follows: Acetic acid-induced writhing. Type of data set: in vivo, mice. Here is the method:
(§1) Behavioral tests. We measured nocifensive responses elicited by i.p. injection of acetic acid in male Swiss and C57B1/6 (wild-type or FAAH-deficient) mice^40, intraplantar injection of carrageenan in male Swiss mice^20, intraplantar injection of formalin in male Sprague-Dawley rats^41, and sciatic nerve ligation in male Swiss mice^39.
Behavioral tests Acetic acid-induced writhing was measured in Swiss mice or C57B1/6 mice (wild-type and FAAH-deficient), as described^40 with minor modifications. Briefly, the mice were acclimated to the experimental room for 2 h. Each animal was injected with acetic acid (150 μL, 0.6% in saline) and placed into a glass cylinder. Abdominal stretches (extension of body and hind limbs) were counted for 20 min, starting 5 min after acetic acid injection. […] Behavior was scored by an observer blinded to the treatment conditions. Formalin-induced nociception was assessed in Sprague-Dawley rats, as described^41. The rats were singly housed and kept in a shared holding room under a 12:12 h light:dark cycle. […] Immediately after formalin injection, the rats were returned to the observation container and nocifensive behavior was recorded for 60 min with a video camera. Recordings were analyzed by observers blinded to treatment conditions. Nocifensive behavior was measured continuously for 60 min^41. […] Each 5-min bin was analyzed for time spent (1) lifting and (2) licking or biting the injected paw. Nocifensive behavior was analyzed using the composite pain score weighted scores technique (CPS-WST1,2) calculated for the entire time of observation (0-60 min) and, separately, for the first (0-10 min) and second phase (10-60 min) of the behavioral response^46. The area under the curve (AUC) corresponding to CPS-WST1,2 was calculated using the trapezoidal rule. […] Paw volumes were measured using a plethysmometer (Ugo Basile, Milan, Italy). […] Mechanical hyperalgesia was assessed by measuring the latency(s) to withdraw the paw from a constant mechanical pressure exerted onto its dorsal surface. […]

The test system of data set [2] is formalin-induced nociception. The data set is described as follows: Formalin-induced pain behavior. The format is in vivo. Particulars: rats, 1 mg-kg^-1, i.p. How it is done:
as §1
Behavioral tests Acetic acid-induced writhing was measured in Swiss mice or C57B1/6 mice (wild-type and FAAH-deficient), as described^40 with minor modifications. Briefly, the mice were acclimated to the experimental room for 2 h. Each animal was injected with acetic acid (150 μL, 0.6% in saline) and placed into a glass cylinder. Abdominal stretches (extension of body and hind limbs) were counted for 20 min, starting 5 min after acetic acid injection. […] Behavior was scored by an observer blinded to the treatment conditions. Formalin-induced nociception was assessed in Sprague-Dawley rats, as described^41. […] Immediately after formalin injection, the rats were returned to the observation container and nocifensive behavior was recorded for 60 min with a video camera. Recordings were analyzed by observers blinded to treatment conditions. Nocifensive behavior was measured continuously for 60 min^41. […] Each 5-min bin was analyzed for time spent (1) lifting and (2) licking or biting the injected paw. […]

Data set [3] is described as follows: Tissue distribution of URB937 by LC/MS. Type of data set: in vivo. The settings on record: mice, 1 mg-kg^-1, i.p. Here is the method: Tissue analyses. We performed tissue extractions and liquid chromatography/mass spectrometry analyses of endocannabinoids as described^38. Similar procedures were utilized for the tissue extraction and LC/MS quantification of URB937, as detailed further below.
Tissue extractions Mice were sacrificed with isoflurane and tissues were collected and immediately frozen in liquid nitrogen. Frozen tissues were weighed and homogenized in methanol (1 mL) containing [^2H4]-anandamide, [^2H4]-PEA, [^2H8]-2-AG, and N-cyclohexyl biphenyl-3-ylacetamide as internal standards. Analytes were extracted with chloroform (2 vol) and washed with water (1 vol). Organic phases were collected and dried under nitrogen. The non-fractionated organic extract was used for quantification of URB937. For other analyses the organic extract was fractionated by open-bed silica gel column chromatography, as described^43. Briefly, the extract was dissolved in chloroform and loaded onto small glass columns packed with Silica Gel G (60˜A 230-400 Mesh ASTM; Whatman, Clifton, N.J.). […]
Mobile phase A consisted of methanol containing 0.25% acetic acid, 5 mM ammonium acetate; mobile phase B consisted of water containing 0.25% acetic acid, 5 mM ammonium acetate. […] Na^+ adducts ([M+Na^+]) of analytes and internal standards were monitored in the selective ion-monitoring mode. Limit of quantification was 0.4 pmol.

Another data set addresses FAAH (Mus musculus (Mouse), UniProt O08914). The data set is described as follows: FAAH inhibition ex vivo after systemic administration in mice. Particulars: mouse, ip. Here is the method:
Drug preparation for in vivo experiments Drugs were dissolved in polyethylene glycol 400/Tween-80/saline (1/1/18; by volume) and administered by i.p. (5-10 mL-kg^−1) or s.c. injection (10 mL-kg^−1).

Usually inhibition stands for the change of the read-out against control, counted positive when it falls.

Where two headings read alike, the source gives them in different places.

FAAH, sequence (O08914 whole entry): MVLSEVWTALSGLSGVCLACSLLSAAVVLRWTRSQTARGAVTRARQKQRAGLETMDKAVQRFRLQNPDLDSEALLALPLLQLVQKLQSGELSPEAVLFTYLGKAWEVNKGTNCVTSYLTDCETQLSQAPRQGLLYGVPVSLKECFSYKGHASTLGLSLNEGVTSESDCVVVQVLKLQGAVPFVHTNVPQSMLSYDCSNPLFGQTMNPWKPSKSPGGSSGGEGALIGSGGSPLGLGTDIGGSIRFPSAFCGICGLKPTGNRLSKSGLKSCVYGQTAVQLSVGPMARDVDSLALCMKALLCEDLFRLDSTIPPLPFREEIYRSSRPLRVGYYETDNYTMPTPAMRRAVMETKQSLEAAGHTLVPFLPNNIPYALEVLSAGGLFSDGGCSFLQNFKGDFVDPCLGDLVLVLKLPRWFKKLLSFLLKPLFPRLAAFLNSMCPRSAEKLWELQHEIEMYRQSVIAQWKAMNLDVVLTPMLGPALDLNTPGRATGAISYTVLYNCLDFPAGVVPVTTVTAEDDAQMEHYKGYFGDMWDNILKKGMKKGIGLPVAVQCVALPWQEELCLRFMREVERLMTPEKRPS

With `NC(=O)c1cccc(-c2cc(OC(=O)NC3CCCCC3)ccc2O)c1` [Compound 1b, cyclohexylcarbamic acid 3′-carbamoyl-6-hydroxybiphenyl-3-yl ester], in data set [1] (mice, 1 mg-kg^-1, without acetic acid), the “nocifensive behavior when administered alone” value is reported as “no detectable nocifensive behavior”. Also, in data set [1] (mice, subcutaneous administration, 1 h before acetic acid), the “acetic acid-induced writhing ED50” value was 0.1 mg/kg. Further, the “reduction of acetic acid-induced writhing in FAAH-deficient mice” value in data set [1] (mutant FAAH-deficient mice, 1 mg-kg^-1) is given as “absent”. In addition, the “area under the curve of formalin-induced pain behavior” value in data set [2] is listed as “decreased the area under the curve”. Further, in data set [3], the “URB937 level in brain tissue after systemic administration” value was “undetectable”. Moreover, the inhibition at 1 mg/kg on FAAH (Mice, 1 mg/Kg i.p., Colon, read-out: % of FAAH inhibition, Colon) was found to be 84.7 ± 0.3%; at FAAH (Mice, 1 mg/Kg i.p., Duodenum, read-out: % of FAAH inhibition, Duodenum), 84.3 ± 1.4%; at FAAH (Mice, 1 mg/Kg i.p., Hypothalamus, read-out: % of FAAH inhibition, Hypothalamus) it was 18.4 ± 13.8%; on FAAH (Mice, 1 mg/Kg i.p., Illeum, read-out: % of FAAH inhibition, Illeum) it was 86.8 ± 2.4%; on FAAH (Mice, 1 mg/Kg i.p., Jejunum, read-out: % of FAAH inhibition, Jejunum) it was 90 ± 1.4%; at FAAH (Mice, 1 mg/Kg i.p., Kidney, read-out: % of FAAH inhibition, Kidney), 88.3 ± 1%. Moreover, the inhibition at 1 mg/kg is 91.7 ± 0.7% at FAAH (Mice, 1 mg/Kg i.p., Liver, read-out: % of FAAH inhibition, Liver); 17.7 ± 10.6% on FAAH (Mice, 1 mg/Kg i.p., Spinal cord, read-out: % of FAAH inhibition, Spinal cord); 72.5 ± 0.7% on FAAH (Mice, 1 mg/Kg i.p., Spleen, read-out: % of FAAH inhibition, Spleen); -3 ± 8% on FAAH (ex vivo 1 h after a single injection in mice (1 mg-kg^-1, i.p.), brain, read-out: FAAH Inhibition in brain (%)).
